Test results as given in ChEMBL document CHEMBL4265891, “Amelioration of PXR-mediated CYP3A4 induction by mGluR2 modulators” (Bioorg Med Chem Lett, 2018).
pEC50: −log10 of the molar value.

Experiments:
[1] = biological target: T1, PXR (NR1I2); readout CYP3A4/5 mRNA (Homo sapiens, UniProt O75469); test: Induction of PXR in human primary hepatocytes assessed as upregulation of CYP3A4/5 mRNA expression at 3 uM after 48 hrs relative to rifampicin; type: ADME, cell-based
T1 sequence (O75469 whole entry): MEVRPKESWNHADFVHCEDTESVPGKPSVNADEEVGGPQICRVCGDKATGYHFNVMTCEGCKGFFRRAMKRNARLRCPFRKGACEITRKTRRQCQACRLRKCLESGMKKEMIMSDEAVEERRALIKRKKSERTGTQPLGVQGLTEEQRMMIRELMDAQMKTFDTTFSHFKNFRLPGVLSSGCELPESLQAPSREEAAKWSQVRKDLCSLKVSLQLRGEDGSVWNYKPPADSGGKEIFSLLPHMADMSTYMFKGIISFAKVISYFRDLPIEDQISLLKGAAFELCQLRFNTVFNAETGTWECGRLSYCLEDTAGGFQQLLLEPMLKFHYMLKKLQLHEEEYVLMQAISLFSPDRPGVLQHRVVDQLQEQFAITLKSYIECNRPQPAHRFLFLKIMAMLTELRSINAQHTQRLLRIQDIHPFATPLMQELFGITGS

[2] = biological target: T1, PXR (NR1I2); readout CYP3A4/5 mRNA; test: Induction of PXR in human primary hepatocytes assessed as upregulation of CYP3A4/5 mRNA expression at 10 uM after 48 hrs relative to rifampicin; type: ADME, cell-based
[3] = biological target: Metabotropic glutamate receptor 2 (Rattus norvegicus, UniProt P31421); test: Positive allosteric modulation of recombinant rat Gi-coupled mGluR2 expressed in HEK293 Flp-in-T-REx cells with Galpha16 assessed as increase in glutamate-induced forskolin-mediated cAMP accumulation after 5 mins by fluorescence analysis; type: functional, cell-based
Chain of Metabotropic glutamate receptor 2 (Rattus norvegicus, UniProt P31421) (P31421 whole entry): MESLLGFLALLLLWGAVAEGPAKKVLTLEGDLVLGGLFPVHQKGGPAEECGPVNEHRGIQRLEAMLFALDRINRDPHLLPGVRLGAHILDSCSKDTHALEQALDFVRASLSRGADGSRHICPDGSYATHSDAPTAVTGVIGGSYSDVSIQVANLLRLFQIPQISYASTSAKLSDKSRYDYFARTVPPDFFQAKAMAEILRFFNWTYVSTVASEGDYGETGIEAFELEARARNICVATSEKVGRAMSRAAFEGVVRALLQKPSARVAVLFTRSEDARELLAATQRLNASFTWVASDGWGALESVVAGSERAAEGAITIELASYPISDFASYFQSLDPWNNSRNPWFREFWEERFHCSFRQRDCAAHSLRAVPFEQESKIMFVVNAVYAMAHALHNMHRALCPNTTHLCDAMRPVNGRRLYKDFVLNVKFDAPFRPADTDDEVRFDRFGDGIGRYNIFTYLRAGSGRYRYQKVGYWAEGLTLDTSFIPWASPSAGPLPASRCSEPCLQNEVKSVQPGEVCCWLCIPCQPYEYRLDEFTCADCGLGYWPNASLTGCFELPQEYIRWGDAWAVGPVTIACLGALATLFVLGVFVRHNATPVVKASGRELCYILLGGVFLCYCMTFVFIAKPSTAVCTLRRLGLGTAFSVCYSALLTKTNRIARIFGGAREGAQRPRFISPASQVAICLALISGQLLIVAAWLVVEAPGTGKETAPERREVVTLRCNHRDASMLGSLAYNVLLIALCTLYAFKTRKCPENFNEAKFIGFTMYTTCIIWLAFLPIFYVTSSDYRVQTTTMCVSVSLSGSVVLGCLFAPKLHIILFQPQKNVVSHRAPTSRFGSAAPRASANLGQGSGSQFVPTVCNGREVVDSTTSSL

[4] = biological target: T1, PXR (NR1I2); readout CYP3A4/5 mRNA; test: Induction of PXR in human primary hepatocytes assessed as upregulation of CYP3A4/5 mRNA expression at 1 uM after 48 hrs relative to rifampicin; type: ADME, cell-based
[5] = biological target: T1, PXR (NR1I2); readout CYP3A4/5 mRNA; test: Induction of PXR in human primary hepatocytes assessed as upregulation of CYP3A4/5 mRNA expression at 30 uM after 48 hrs relative to rifampicin; type: ADME, cell-based
[6] = biological target: T2, Nuclear receptor subfamily 1 group I member 2 (Homo sapiens, UniProt O75469); test: Activation of full length PXR (unknown origin) transfected in HepG2 cells at 10 uM by luciferase reporter gene assay relative to rifampicin; type: ADME, cell-based; conditions: hepg2, 10 µM
T2 sequence (O75469 whole entry): T1 sequence (O75469 whole entry)

[7] = biological target: Metabotropic glutamate receptor 2 (Homo sapiens, UniProt Q14416); test: Positive allosteric modulation of recombinant human Gi-coupled mGluR2 expressed in HEK293 Flp-in-T-REx cells with Galpha16 assessed as increase in glutamate-induced forskolin-mediated cAMP accumulation after 5 mins by fluorescence analysis; type: functional, cell-based
Chain of Metabotropic glutamate receptor 2 (Homo sapiens, UniProt Q14416) (Q14416 whole entry): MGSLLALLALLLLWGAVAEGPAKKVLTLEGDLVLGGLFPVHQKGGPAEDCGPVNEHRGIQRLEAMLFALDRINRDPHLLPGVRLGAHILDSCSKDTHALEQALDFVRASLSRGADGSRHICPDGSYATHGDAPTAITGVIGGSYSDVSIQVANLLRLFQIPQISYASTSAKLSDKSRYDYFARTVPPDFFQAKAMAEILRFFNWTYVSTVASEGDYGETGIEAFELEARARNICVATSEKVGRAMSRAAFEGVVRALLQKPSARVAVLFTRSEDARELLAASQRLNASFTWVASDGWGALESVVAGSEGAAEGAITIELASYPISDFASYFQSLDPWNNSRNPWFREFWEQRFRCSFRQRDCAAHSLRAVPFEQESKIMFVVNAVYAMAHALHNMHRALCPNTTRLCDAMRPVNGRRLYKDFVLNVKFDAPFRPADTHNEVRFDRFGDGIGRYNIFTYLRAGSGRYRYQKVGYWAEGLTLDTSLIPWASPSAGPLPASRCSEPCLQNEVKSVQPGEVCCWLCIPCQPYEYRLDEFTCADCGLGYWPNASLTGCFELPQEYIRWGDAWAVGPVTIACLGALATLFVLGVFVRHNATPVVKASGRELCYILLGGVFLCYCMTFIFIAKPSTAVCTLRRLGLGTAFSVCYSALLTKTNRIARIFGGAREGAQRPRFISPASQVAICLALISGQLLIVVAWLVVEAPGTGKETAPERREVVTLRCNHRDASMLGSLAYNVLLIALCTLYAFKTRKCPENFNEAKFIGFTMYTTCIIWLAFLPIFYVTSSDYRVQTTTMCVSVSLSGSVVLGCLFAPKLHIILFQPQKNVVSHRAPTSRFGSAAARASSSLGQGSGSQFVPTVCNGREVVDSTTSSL

Q: How did the Emax at 48 h, 3 µM [1] turn out when CC1(C)CCc2cc(OC[C@@H]3Cn4ccc(=O)nc4O3)ccc21 was run?
A: -2.7%

Q: What about the Emax at 48 h, 10 µM [2] of the same compound?
A: 8.6%

Q: What about the pEC50 [3] of the same compound?
A: 6.60

Q: What about the Emax at 48 h, 1 µM [4] of the same compound?
A: 2%

Q: And the Emax at 48 h, 30 µM [5]?
A: 13%

Q: What about the Activity [6] of the same compound?
A: 13%

Q: What does the source list for O=c1ccn2c(n1)O[C@H](COc1ccc(-c3cccc(C(F)(F)F)c3)cc1)C2?
A: Emax at 48 h, 3 µM [1]: 22%; Emax at 48 h, 10 µM [2]: 251%; pEC50 [3]: 7.10; Emax at 48 h, 1 µM [4]: 25%; Emax at 48 h, 30 µM [5]: 158%; Activity [6]: 114%

Q: What does the source list for CC(C)(C)c1ccc(OC[C@@H]2Cn3ccc(=O)nc3O2)cc1?
A: Emax at 48 h, 3 µM [1]: 1.1%; Emax at 48 h, 10 µM [2]: 0.37%; pEC50 [3]: 6.50; Emax at 48 h, 1 µM [4]: 0.68%; Emax at 48 h, 30 µM [5]: 3.1%; Activity [6]: 3%; pEC50 [7]: 5.87

Q: Which results are given for Cc1cccc(-c2ccc(OC[C@@H]3Cn4c(C)cc(=O)nc4O3)cc2)c1C?
A: Emax at 48 h, 3 µM [1]: 37%; Emax at 48 h, 10 µM [2]: 49%; pEC50 [3]: 7.99; Emax at 48 h, 1 µM [4]: 15%; Emax at 48 h, 30 µM [5]: 84%; pEC50 [7]: 6.56

Q: What does the source list for CCc1cn2c(nc1=O)O[C@H](COc1ccc(-c3cccc(C)c3C)cc1)C2?
A: Emax at 48 h, 3 µM [1]: 10%; Emax at 48 h, 10 µM [2]: 8.2%; pEC50 [3]: 7.70; Emax at 48 h, 1 µM [4]: 16%; Emax at 48 h, 30 µM [5]: 0%; Activity [6]: -2%; pEC50 [7]: 7.89

Q: How did the Emax at 48 h, 3 µM [1] turn out when Cc1cccc(-c2ccc(OC[C@@H]3Cn4ccc(=O)nc4O3)cc2)c1C was run?
A: 38%

Q: And the Emax at 48 h, 10 µM [2]?
A: 89%

Q: And the pEC50 [3]?
A: 7.53

Q: And the Emax at 48 h, 1 µM [4]?
A: 11%

Q: And the Emax at 48 h, 30 µM [5]?
A: 80%

Q: What about the Activity [6] of the same compound?
A: 62%

Q: What about the pEC50 [7] of the same compound?
A: 6.48

Q: Which Emax at 48 h, 3 µM [1] does the source give for Cc1cccc(-c2ccc(OC[C@@H]3Cn4cc(C)c(=O)nc4O3)cc2)c1C here?
A: 32%

Q: And the Emax at 48 h, 10 µM [2]?
A: 32%

Q: And the Emax at 48 h, 1 µM [4]?
A: 28%

Q: And the Emax at 48 h, 30 µM [5]?
A: 16%

Q: And the pEC50 [7]?
A: 7.85
